# Values quoted from earlier work in patent US7087617B2, “Substituted pyrimidine derivatives” (Pfizer Inc., priority 2003, dated 2006).
# Details: for effect on the "anxiogenic" effects / actions of CRF in the conflict test: rats, CRF-induced effects
Structure (SMILES),"behavioral activity alone in the operant conflict test (compound alone, without CRF)","effect on the ""anxiogenic"" effects / actions of CRF in the conflict test"
CCOC(=O)c1ncn2c1CN(C)C(=O)c1cc(F)ccc1-2 [Ro 15-1788],without behavioral activity alone,reversed the effects of CRF in a dose-dependent manner
CNC(=O)c1cc2c(cn1)[nH]c1ccccc12 [FG 7142],–,enhanced the actions of CRF
